Data published in patent publication US20250129056A1, “PROCESS FOR PREPARING HISTONE DEMETHYLASE INHIBITORS” (Celgene Corporation, priority 2021, published 2025).
≈ marks a conversion by molar mass, not a printed value.

Legend:
[1] = tested on: KDM4 family of histone demethylases; conditions: cited from earlier work
[2] = Solubility observations in water and common organic solvents; type: physicochemical
[3] = Solubility of Compound 12 in common solvents (Table 5); type: physicochemical; conditions: organic solvent or mixture
Excerpt: The crystallization of Compound 12 also required optimization. Studies were undertaken to find the optimal solvent system of iPrOH/MeTHF.

**Q.** With CC(C)c1ccc(N(C)c2ccc3c(c2)OCC[C@H]3CNc2cnccc2C(=O)O)cc1 [Compound 8, 3-({[(4R)-7-{methyl[4-(propan-2-yl)phenyl]amino}-3,4-dihydro-2H-1-benzopyran-4-yl]methyl}amino)pyridine-4-carboxylic acid] as the compound, how does the “inhibition of the KDM4 family of histone demethylases” value [1] read?
**A.** Its value is “selective inhibitor”.

**Q.** And the solubility ([2]; in most common solvents)?
**A.** Its solubility is “poor”.

**Q.** And the solubility ([2]; in water (low to neutral pH) and most common organic solvents, free acid)?
**A.** Its solubility is “undetectable”.

**Q.** And the solubility ([2]; in water and most common organic solvents)?
**A.** Its solubility is “poor”.

**Q.** Which solubility ([2]; in a number of common organic solvents including heptane) does the source give for CC(C)(C)OC(=O)NC[C@@H]1CCOc2cc(Br)ccc21 [Compound 11] here?
**A.** The solubility was “high”.

**Q.** Which solubility ([2]; in a number of common solvents) does the source give for CC(C)c1ccc(N(C)c2ccc3c(c2)OCC[C@H]3CNC(=O)OC(C)(C)C)cc1 [Compound 12] here?
**A.** The solubility was “low”.

**Q.** What about the solubility ([3]; solvent 1-PrOH) of the same compound?
**A.** Its solubility is 5 mg/mL (≈ 12.2 mM).

**Q.** And the solubility ([3]; solvent 2-MeTHF)?
**A.** Its solubility is 63 mg/mL (≈ 153 mM).

**Q.** And the solubility ([3]; solvent CPMe)?
**A.** Its solubility is 26 mg/mL (≈ 63.3 mM).

**Q.** And the solubility ([3]; solvent DMAc)?
**A.** The solubility was 77 mg/mL (≈ 188 mM).

**Q.** What about the solubility ([3]; solvent EtOAc) of the same compound?
**A.** Its solubility is 22 mg/mL (≈ 53.6 mM).

**Q.** And the solubility ([3]; solvent HOAC)?
**A.** The solubility was 20 mg/mL (≈ 48.7 mM).

**Q.** And the solubility ([3]; solvent IPA)?
**A.** Its solubility is 3 mg/mL (≈ 7.31 mM).

**Q.** What about the solubility ([3]; solvent IPAc) of the same compound?
**A.** Its solubility is 14 mg/mL (≈ 34.1 mM).

**Q.** And the solubility ([3]; solvent MEK)?
**A.** The solubility was 28 mg/mL (≈ 68.2 mM).

**Q.** What about the solubility ([3]; solvent MIBK) of the same compound?
**A.** The solubility was 17 mg/mL (≈ 41.4 mM).

**Q.** And the solubility ([3]; solvent MTBE)?
**A.** Its solubility is 11 mg/mL (≈ 26.8 mM).

**Q.** And the solubility ([3]; solvent MeCN)?
**A.** The solubility was 5 mg/mL (≈ 12.2 mM).

**Q.** What about the solubility ([3]; solvent MeOH) of the same compound?
**A.** The solubility was 3 mg/mL (≈ 7.31 mM).

**Q.** What about the solubility ([3]; solvent THF) of the same compound?
**A.** The solubility was ≥ 150 mg/mL.

**Q.** What about the solubility ([3]; solvent toluene) of the same compound?
**A.** Its solubility is 27 mg/mL (≈ 65.8 mM).
